Counter-ions that a name gives are not always drawn.
Assays:
Human CCR3 = biological target: T1, Human CCR3 (Homo sapiens, UniProt P51677); assay: Calcium mobilization assay, eotaxin-stimulated; type: cell-based; settings: human CCR3-transformed K562 cells, 10 nM eotaxin; compounds of about 40 to 90% purity; read-out: Activity grade Ca2+ (IC50 class)
T1 construct: The cloned CCR3 cDNA was constructed with pcDNA3 vector and transfected into a IC562 cell line; expressed in transfected cells
T1 sequence (P51677 1-355): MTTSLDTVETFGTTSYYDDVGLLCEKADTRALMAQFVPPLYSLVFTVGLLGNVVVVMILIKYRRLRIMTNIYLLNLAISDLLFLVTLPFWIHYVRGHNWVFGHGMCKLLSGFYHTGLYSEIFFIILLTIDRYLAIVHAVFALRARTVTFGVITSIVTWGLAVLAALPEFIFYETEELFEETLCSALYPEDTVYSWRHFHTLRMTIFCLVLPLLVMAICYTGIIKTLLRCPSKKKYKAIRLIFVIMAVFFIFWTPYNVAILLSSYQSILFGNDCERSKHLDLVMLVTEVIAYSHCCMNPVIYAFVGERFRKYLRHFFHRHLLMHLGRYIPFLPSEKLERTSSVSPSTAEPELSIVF
Summary of the method: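 K562 cells transfected with human CCR3, pretreated 20–24 h with 5 mM sodium butyrate, loaded with Fluo-3AM. Compound added 10 min before stimulation with 10 nM (final) eotaxin; cytoplasmic calcium read over 60 s by FDSS, IC50 from inhibition curve.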

| Structure (SMILES) | IC50 (Human CCR3) [µM] | melting point [°C] |
| --- | --- | --- |
| Cl.O=[N+]([O-])c1ccc(Oc2ccccc2Cl)c(S(=O)(=O)N2CCNCC2)c1 [Example 1-28] | < 1 | 166 to 169 |
| Cl.Cl.Cl.Nc1ccc(Oc2ccc([N+](=O)[O-])cc2S(=O)(=O)N2CCNCC2)cc1 [Example 1-13] | > 10 | 246 to 248 |
| Cc1ccc(Cl)c(Oc2ccc([N+](=O)[O-])cc2S(=O)(=O)N2CCNCC2)c1 [Example 1-80] | < 1 | 166 to 167 |
| Cc1ccc(C(C)C)c(Oc2ccc([N+](=O)[O-])cc2S(=O)(=O)N2CCNCC2)c1.Cl [Example 1-66] | 1 to 10 | 193 |
| O=[N+]([O-])c1ccc(Oc2cc(Cl)cc(Cl)c2)c(S(=O)(=O)N2CC3CCCNC3C2)c1 (stereo not shown) [Example 1-48] | < 1 | 170 |
| Cc1cc(C)cc(Oc2ccc([N+](=O)[O-])cc2S(=O)(=O)N2CCN(CCO)CC2)c1 [Example 1-88] | < 1 | 163 to 164 |
| Cc1cc(C)cc(Oc2ccncc2S(=O)(=O)N2CCNCC2)c1 [Example 25-1, 1-{[4-(3,5-dimethylphenoxy)-3-pyridinyl]sulfonyl}piperazine hydrochloride] | < 1 | – |
| Cc1cc(C)cc(Oc2ccc([N+](=O)[O-])cc2S(=O)(=O)N2CCCNCC2)c1 [Example 1-90] | < 1 | – |
| Cc1cc(C)cc(Oc2ccc(S(C)(=O)=O)cc2S(=O)(=O)N2CCNCC2)c1.Cl [Example 1-35] | < 1 | 267 to 268 |
| Cl.O=S(=O)(c1cc(F)ccc1Oc1cc(Cl)cc(Cl)c1)N1CCNCC1 [Example 1-51] | < 1 | 145 |
| O=[N+]([O-])c1ccc(Oc2cc(Br)cc(Br)c2)c(S(=O)(=O)N2CCNCC2)c1 [Example 1-76] | < 1 | 205 |
| Cc1cc(C)cc(Oc2ccc([N+](=O)[O-])cc2S(=O)(=O)N2CCN(C(=O)OC(C)(C)C)CC2)c1 [Example 1-1, tert-butyl 4-{[2-(3,5-dimethylphenoxy)-5-nitrophenyl]sulfonyl}-1-piperazinecarboxylate] | > 10 | 232 to 233 |
| Cc1cc(C)cc(Oc2ccc(O)cc2S(=O)(=O)N2CCNCC2)c1 [Example 6-1, 4-(3,5-dimethylphenoxy)-3-(1-piperazinylsulfonyl)phenol hydrochloride] | > 10 | – |
| Cc1ccccc1Oc1ccc([N+](=O)[O-])cc1S(=O)(=O)N1CCNCC1.Cl [Example 1-12] | 1 to 10 | 167 to 169 |
| CN(C)c1cccc(Oc2ccc([N+](=O)[O-])cc2S(=O)(=O)N2CCNCC2)c1.Cl [Example 1-32] | 1 to 10 | 182 |
| O=[N+]([O-])c1ccc(Oc2ccc(Cl)cc2)c(S(=O)(=O)N2CCNCC2)c1 [Example 1-22] | > 10 | – |
| Cc1cc(C)c(C)c(Oc2ccc([N+](=O)[O-])cc2S(=O)(=O)N2CCNCC2)c1.Cl [Example 1-65] | < 1 | 187 |
| N#Cc1ccc(Nc2cc(Cl)cc(Cl)c2)c(S(=O)(=O)N2CCNCC2)c1 [Example 20-1, 4-[(3,5-dichlorophenyl)amino]-3-(1-piperazinylsulfonyl)benzonitrile hydrochloride] | < 1 | – |
| Cl.N#Cc1cccc(Oc2ccc([N+](=O)[O-])cc2S(=O)(=O)N2CCNCC2)c1 [Example 1-10] | 1 to 10 | 265 to 267 |
| COc1ccc(Oc2cc(C)cc(C)c2)c(S(=O)(=O)N2CCNCC2)c1 [Example 6-2, hydrochloride] | 1 to 10 | – |
| CC1CN(S(=O)(=O)c2cc([N+](=O)[O-])ccc2Oc2cc(Cl)cc(Cl)c2)CC(C)N1 (stereo not shown) [Example 1-93] | < 1 | – |

| Structure (SMILES) | IC50 (Human CCR3) [µM] | melting point [°C] |
| --- | --- | --- |
| Cc1cc(C)cc(Oc2ccc(C(=O)N3CCNCC3)cc2S(=O)(=O)N2CCNCC2)c1.Cl.Cl [Example 1-42] | > 10 | 288 to 290 |
| O=[N+]([O-])c1ccc(Oc2cc(Cl)ccc2Cl)c(S(=O)(=O)N2CCNCC2)c1 [Example 1-84] | < 1 | 179 to 180 |
| CC(C)(C)c1cccc(Oc2ccc([N+](=O)[O-])cc2S(=O)(=O)N2CCNCC2)c1.Cl [Example 1-36] | < 1 | 155 |
| O=[N+]([O-])c1ccc(Oc2ccc(F)cc2)c(S(=O)(=O)N2CCNCC2)c1 [Example 1-20] | > 10 | – |
| CN(C)C(=O)c1ccc(Oc2cc(Cl)cc(Cl)c2)c(S(=O)(=O)N2CCNCC2)c1 [Example 10-1, 4-(3,5-dichlorophenoxy)-N,N-dimethyl-3-(1-piperazinylsulfonyl)benzamide hydrochloride] | 1 to 10 | – |
| Cc1cc(Oc2ccc([N+](=O)[O-])cc2S(=O)(=O)N2CCNCC2)c(C(C)C)cc1Cl [Example 1-81] | > 10 | – |
| Cc1cc(C)cc(Sc2ccc([N+](=O)[O-])cc2S(=O)(=O)N2CCNCC2)c1 [Example 2-1, 1-({2-[(3,5-dimethylphenyl)-sulfanyl]-5-nitrophenyl}sulfonyl)piperazine hydrochloride] | < 1 | – |
| N#Cc1ccccc1Oc1ccc([N+](=O)[O-])cc1S(=O)(=O)N1CCNCC1 [Example 1-29] | 1 to 10 | – |
| Cc1cc(C)cc(Oc2ccc([N+](=O)[O-])cc2S(=O)(=O)N2CCN(CCOCCO)CC2)c1 [Example 1-89] | < 1 | – |
| Cc1cc(C)cc(Oc2ccc([N+](=O)[O-])cc2S(=O)(=O)N2CCNCC2)c1 [Example 1-2, 1-{[2-(3,5-dimethylphenoxy)-5-nitrophenyl]sulfonyl}piperazine hydrochloride] | < 1 | – |
| CC(C)(C)c1ccc(Oc2ccc([N+](=O)[O-])cc2S(=O)(=O)N2CCNCC2)cc1 [Example 1-21] | > 10 | – |
| Cc1cc(C)cc(Oc2ccc(C#N)cc2S(=O)(=O)N2CCNCC2)c1 [Example 9-1, 4-(3,5-dimethylphenoxy)-3-(1-piperazinylsulfonyl)benzonitrile hydrochloride] | < 1 | – |
| Cc1cc(C)cc(Oc2ccc(Cl)cc2S(=O)(=O)N2CCNCC2)c1 [Example 5-2, 1-{[5-chloro-2-(3,5-dimethylphenoxy)phenyl]sulfonyl}piperazine hydrochloride] | < 1 | – |
| COc1ccc(Oc2ccc([N+](=O)[O-])cc2S(=O)(=O)N2CCNCC2)cc1 [Example 1-19] | > 10 | – |
| Cc1cc(C)cc(Oc2cc3cc[nH]c3cc2S(=O)(=O)N2CCNCC2)c1 [Example 11-1, 5-(3,5-dimethylphenoxy)-6-(1-piperazinylsulfonyl)-1H-indole trifluoroacetate] | > 10 | – |
| Cc1cc(C)cc(Oc2ccc(Br)cc2S(=O)(=O)N2CCNCC2)c1 [Example 8-1, 1-{[5-bromo-2-(3,5-dimethylphenoxy)phenyl]sulfonyl}piperazine hydrochloride] | < 1 | – |
| O=[N+]([O-])c1ccc(Oc2ccccc2)c(S(=O)(=O)N2CCNCC2)c1 [Example 1-18] | 1 to 10 | – |
| O=[N+]([O-])c1ccc(Oc2cccc(F)c2)c(S(=O)(=O)N2CCNCC2)c1 [Example 1-25] | < 1 | – |
| Cc1cc(C)cc(Oc2ccc([N+](=O)[O-])cc2S(=O)(=O)N2CC(C)NC(C)C2)c1 (stereo not shown) [Example 1-92] | < 1 | – |
| Cc1cc(C)cc(Oc2ccc(N)cc2S(=O)(=O)N2CCN(C(=O)OC(C)(C)C)CC2)c1 [Example 5-1, tert-butyl 4-{[5-amino-2-(3,5-dimethyl-phenoxy)phenyl]sulfonyl}-1-piperazinecarboxylate] | > 10 | – |

Source: patent US8242118B2, “Arylsulfonamide derivatives for use as CCR3 antagonists in the treatment of inflammatory and immunological disorders” (Axikin Pharmaceuticals Inc., priority 2001, dated 2012)
